From patent US20150004134A1, “TREATMENT OF CANCER WITH HETEROCYCLIC INHIBITORS OF GLUTAMINASE” (Calithera Biosciences, Inc., priority 2012, published 2015)
pIC50: −log10 of the molar value.

Each compound was assayed on P493-6 (myc "on") cells (assay: Cell Proliferation Assay). Settings: P493-6, 72 h, read-out: Cell prolif P493 72 h IC50, P493 cells, 72 h.
Format: cell-based
Procedure: P493-6 (myc “on”) cells were maintained in growth media (RPMI-1640, 10% FBS, 2 mM glutamine, 100 units/ml Penicillin and 100 μg/ml streptomycin) at 37° C. with 5% CO2. For compound assay, P493-6 cells were plated in 96-well V-bottom plates on the day of compound addition in 50 μl of growth media at a cell density of 200,000 cells/ml (10,000 cells/well). Compounds were serially diluted in 100% DMSO at 200-times the final concentration. Compounds were diluted 100-fold into growth media and then 50 μl of this mixture was added to cell plates making the final concentration of DMSO 0.5%. Cells were incubated with compound for 72 hrs at 37° C. with 5% CO2 and analyzed for antiproliferative effects either by Cell Titer Glo (Promega) or FACS analysis using the Viacount (Millipore) kit on the Guava instrument.

SMILES	pIC50
O=C(Nc1nnc(CCSCCc2nnc(NC(=O)[C@H](O)c3ccccc3)s2)s1)[C@H](O)c1ccccc1 [Compound 81]	5.12
O=C(Cc1ccco1)Nc1nnc(CCSCCc2nnc(NC(=O)Cc3ccco3)s2)s1 [Compound 82]	5.89
O=C(CC1CC1)Nc1nnc(CCSCCc2nnc(NC(=O)CC3CC3)s2)s1 [Compound 83]	5.85
O=C(Cc1ccsc1)Nc1nnc(CCSCCc2nnc(NC(=O)Cc3ccsc3)s2)s1 [Compound 84]	6.05
O=C(CC1CC1)Nc1nnc(CCCCc2nnc(NC(=O)CC3CC3)s2)s1 [Compound 85]	5.74
O=C(Cc1ccco1)Nc1nnc(CCCCc2nnc(NC(=O)Cc3ccco3)s2)s1 [Compound 86]	6.28
O=C(Cc1cccs1)Nc1nnc(CCCCc2nnc(NC(=O)Cc3cccs3)s2)s1 [Compound 87]	7.22
O=C(Cc1ccsc1)Nc1nnc(CCCCc2nnc(NC(=O)Cc3ccsc3)s2)s1 [Compound 88]	6.92
O=C(Nc1nnc(CCCCc2nnc(NC(=O)[C@@H](O)c3ccccc3)s2)s1)[C@@H](O)c1ccccc1 [Compound 92]	6.33
O=C(Nc1nnc(CCSCCc2nnc(NC(=O)[C@@H](O)c3ccccc3)s2)s1)[C@@H](O)c1ccccc1 [Compound 93]	5.70
O=C(Nc1nnc(CCCCc2nnc(NC(=O)C3CC(O)c4ccccc43)s2)s1)C1CC(O)c2ccccc21 (stereo not drawn) [Compound 94]	6.33
O=C(Nc1nnc(CCSCCc2nnc(NC(=O)C3CCOC3)s2)s1)C1CCOC1 (stereo not drawn) [Compound 95]	4.35
Cc1cc(C)n(CC(=O)Nc2nnc(CCSCCc3nnc(NC(=O)Cn4nc(C)cc4C)s3)s2)n1 [Compound 97]	4.77
CC(C)(C)OC(=O)Nc1cccc(CC(=O)Nc2nnc(CCSCCc3nnc(NC(=O)Cc4cccc(NC(=O)OC(C)(C)C)c4)s3)s2)c1 [Compound 98]	5.41
COCCC(=O)Nc1nnc(CCCCc2nnc(NC(=O)CCOC)s2)s1 [Compound 100]	5.05
COCCC(=O)Nc1nnc(CCSCCc2nnc(NC(=O)CCOC)s2)s1 [Compound 101]	4.77
O=C(Cc1cccc(F)c1)Nc1nnc(CCSCCc2nnc(NC(=O)Cc3cccc(F)c3)s2)s1 [Compound 102]	5.85
CC1(C)OC(=O)[C@@H](CC(=O)Nc2nnc(CCCCc3nnc(NC(=O)C[C@H]4OC(C)(C)OC4=O)s3)s2)O1 [Compound 103]	< 4.30
CCC(C)C(=O)Nc1nnc(CCSCCc2nnc(NC(=O)C(C)CC)s2)s1 (stereo not drawn) [Compound 105]	3.92
CCC(C)C(=O)Nc1nnc(CCCCc2nnc(NC(=O)C(C)CC)s2)s1 (stereo not drawn) [Compound 107]	5.92
CC(C)(C)OC(=O)N1CCC(CC(=O)Nc2nnc(CCSCCc3nnc(NC(=O)CC4CCN(C(=O)OC(C)(C)C)CC4)s3)s2)CC1 [Compound 111]	6.06
CC(C)(C)OC(=O)N1CCCC(CC(=O)Nc2nnc(CCSCCc3nnc(NC(=O)CC4CCCN(C(=O)OC(C)(C)C)C4)s3)s2)C1 (stereo not drawn) [Compound 112]	6.05

SMILES	pIC50
CC(C)(C)OC(=O)N1CCC(CC(=O)Nc2nnc(CCCCc3nnc(NC(=O)CC4CCN(C(=O)OC(C)(C)C)CC4)s3)s2)CC1 [Compound 114]	6.25
CC(C)(C)OC(=O)N1CCCC(CC(=O)Nc2nnc(CCCCc3nnc(NC(=O)CC4CCCN(C(=O)OC(C)(C)C)C4)s3)s2)C1 (stereo not drawn) [Compound 115]	5.96
O=C(Cc1cccs1)Nc1nnc(CCSCCc2nnc(NC(=O)Cc3cccs3)s2)s1 [Compound 116]	6.14
COc1ccc2c(c1)CC(C(=O)Nc1nnc(CCSCCc3nnc(NC(=O)C4Cc5cc(OC)ccc5O4)s3)s1)O2 (stereo not drawn) [Compound 117]	5.21
O=C(Nc1nnc(CCSCCc2nnc(NC(=O)C3Cc4cc(Br)ccc4O3)s2)s1)C1Cc2cc(Br)ccc2O1 (stereo not drawn) [Compound 118]	4.44
CC1(C(=O)Nc2nnc(CCSCCc3nnc(NC(=O)C4(C)CCCO4)s3)s2)CCCO1 (stereo not drawn) [Compound 119]	4.89
O=C(Nc1nnc(CCCCc2nnc(NC(=O)C3Cc4cc(Cl)ccc4O3)s2)s1)C1Cc2cc(Cl)ccc2O1 (stereo not drawn) [Compound 120]	4.42
COc1ccc2c(c1)CC(C(=O)Nc1nnc(CCCCc3nnc(NC(=O)C4Cc5cc(OC)ccc5O4)s3)s1)O2 (stereo not drawn) [Compound 121]	5.46
O=C(Nc1nnc(CCCCc2nnc(NC(=O)C3Cc4cc(Br)ccc4O3)s2)s1)C1Cc2cc(Br)ccc2O1 (stereo not drawn) [Compound 122]	4.37
CC1(C(=O)Nc2nnc(CCCCc3nnc(NC(=O)C4(C)CCCO4)s3)s2)CCCO1 (stereo not drawn) [Compound 123]	5.18
O=C(C[C@@H](O)c1ccccc1)Nc1nnc(CCSCCc2nnc(NC(=O)C[C@@H](O)c3ccccc3)s2)s1 [Compound 126]	4.92
O=C(C[C@@H](O)c1ccccc1)Nc1nnc(CCCCc2nnc(NC(=O)C[C@@H](O)c3ccccc3)s2)s1 [Compound 127]	6.35
CC(=O)N[C@@H](C(=O)Nc1nnc(CCSCCc2nnc(NC(=O)[C@H](NC(C)=O)c3ccccc3)s2)s1)c1ccccc1 [Compound 128]	< 4.30
O=C(CC1CCNCC1)Nc1nnc(CCSCCc2nnc(NC(=O)CC3CCNCC3)s2)s1 [Compound 129]	< 4.30
O=C(Nc1nnc(CCSCCc2nnc(NC(=O)C3Oc4ccccc4O3)s2)s1)C1Oc2ccccc2O1 [Compound 134]	4.55
O=C(Nc1nnc(CCCCc2nnc(NC(=O)C3COc4ccccc43)s2)s1)C1COc2ccccc21 (stereo not drawn) [Compound 135]	6.31
O=C(Nc1nnc(CCCCc2nnc(NC(=O)C3Oc4ccccc4O3)s2)s1)C1Oc2ccccc2O1 [Compound 136]	5.33
O=C(N[C@@H](CO)C(=O)Nc1nnc(CCSCCc2nnc(NC(=O)[C@H](CO)NC(=O)OCc3ccccc3)s2)s1)OCc1ccccc1 [Compound 138]	5.57
N[C@@H](CO)C(=O)Nc1nnc(CCCCc2nnc(NC(=O)[C@@H](N)CO)s2)s1 [Compound 140]	< 4.30
CC[C@](O)(C(=O)Nc1nnc(CCSCCc2nnc(NC(=O)[C@@](O)(CC)c3ccccc3)s2)s1)c1ccccc1 [Compound 141]	5.37
CC[C@](O)(C(=O)Nc1nnc(CCCCc2nnc(NC(=O)[C@@](O)(CC)c3ccccc3)s2)s1)c1ccccc1 [Compound 143]	5.66
O=C(Nc1nnc(CCCCc2nnc(NC(=O)[C@@H](O)Cc3ccccc3)s2)s1)[C@@H](O)Cc1ccccc1 [Compound 146]	6.34

SMILES	pIC50
CO[C@@H](C(=O)Nc1nnc(CCCCc2nnc(NC(=O)[C@H](OC)c3ccccc3)s2)s1)c1ccccc1 [Compound 147]	6.43
CO[C@H](C(=O)Nc1nnc(CCCCc2nnc(NC(=O)[C@@H](OC)c3ccccc3)s2)s1)c1ccccc1 [Compound 148]	6.41
CC(CO)(CO)C(=O)Nc1nnc(CCCCc2nnc(NC(=O)C(C)(CO)CO)s2)s1 [Compound 151]	< 4.30
CC(CO)(CO)C(=O)Nc1nnc(CCCCc2nnc(NC(=O)Cc3cccc(F)c3)s2)s1 [Compound 152, N,N′-(5-(4-(5-(2-(3-fluorophenyl)acetamido)-1,3,4-thiadiazol-2-yl)butyl)-1,3,4-thiadiazol-2-yl)-3-hydroxy-2-(hydroxymethyl)-2-methylpropanamide]	5.96
O=C(C[C@@H](O)C(=O)O)Nc1nnc(CCCCc2nnc(NC(=O)C[C@@H](O)C(=O)O)s2)s1 [Compound 154]	< 4.30
N#Cc1cccc(CC(=O)Nc2nnc(CCSCCc3nnc(NC(=O)Cc4cccc(C#N)c4)s3)s2)c1 [Compound 155]	5.72
COc1cccc(CC(=O)Nc2nnc(CCSCCc3nnc(NC(=O)Cc4cccc(OC)c4)s3)s2)c1 [Compound 156]	6.20
COc1ccc(CC(=O)Nc2nnc(CCSCCc3nnc(NC(=O)Cc4ccc(OC)c(OC)c4)s3)s2)cc1OC [Compound 157]	6.74
CS(=O)(=O)c1cccc(CC(=O)Nc2nnc(CCSCCc3nnc(NC(=O)Cc4cccc(S(C)(=O)=O)c4)s3)s2)c1 [Compound 158]	5.09
COc1ccc(CC(=O)Nc2nnc(CCCCc3nnc(NC(=O)Cc4ccc(OC)c(OC)c4)s3)s2)cc1OC [Compound 160]	< 4.30
COc1ccc(CC(=O)Nc2nnc(CCSCCc3nnc(NC(=O)Cc4ccc(OC)cc4)s3)s2)cc1 [Compound 161]	5.85
CN(C)c1ccc(CC(=O)Nc2nnc(CCSCCc3nnc(NC(=O)Cc4ccc(N(C)C)cc4)s3)s2)cc1 [Compound 162]	6.82
CN(C)c1ccc(CC(=O)Nc2nnc(CCCCc3nnc(NC(=O)Cc4ccc(N(C)C)cc4)s3)s2)cc1 [Compound 164]	6.89
COCC(C(=O)Nc1nnc(CCCCc2nnc(NC(=O)C(COC)c3ccccc3)s2)s1)c1ccccc1 (stereo not drawn) [Compound 165]	4.48
O=C(Nc1nnc(CCCCc2nnc(NC(=O)C3(c4ccccc4)CCOCC3)s2)s1)C1(c2ccccc2)CCOCC1 [Compound 166]	5.17
O=C(Nc1nnc(CCCCc2nnc(NC(=O)C3(c4cccs4)CCOCC3)s2)s1)C1(c2cccs2)CCOCC1 [Compound 167]	4.47
O=C(Nc1nnc(CCCCc2nnc(NC(=O)C3(c4ccccc4)CC3)s2)s1)C1(c2ccccc2)CC1 [Compound 168]	< 4.30
O=C(Nc1nnc(CCCCc2nnc(NC(=O)[C@H](O)Cc3ccccc3)s2)s1)[C@H](O)Cc1ccccc1 [Compound 169]	5.47
O=C(Nc1nnc(CCCc2nnc(NC(=O)C(O)Cc3ccccc3)s2)s1)C(O)Cc1ccccc1 (stereo not drawn) [Compound 170]	5.03
O=C(Nc1nnc(CCCc2nnc(NC(=O)C(O)c3ccccc3)s2)s1)C(O)c1ccccc1 (stereo not drawn) [Compound 172]	5.43
CC(=O)OC(C(=O)Nc1nnc(CCCCc2nnc(NC(=O)C(OC(C)=O)c3ccccc3)s2)s1)c1ccccc1 (stereo not drawn) [Compound 173]	6.12
O=C(Nc1nnc(CCCCc2nnc(NC(=O)C(O)c3ccccc3)s2)s1)C(O)c1ccccc1 (stereo not drawn) [Compound 174]	6.36
